Where “and” joins values, the source holds several entries; their conditions need not be identical. Identical values can stand only once. Entries after “also recorded” stand apart in the source; their conditions may differ. Like-named read-outs stand apart in the source and are kept apart here.
Assays:
Format in all cases: cell-based
B. subtilis = assay: MIC dilutions of bile acids, B. subtilis
B. clausii = assay: MIC dilutions of bile acids, B. clausii
S. pneumoniae = assay: MIC dilutions of bile acids, S. pneumoniae
E. faecalis = assay: MIC dilutions of bile acids, E. faecalis
E. Faecium = assay: MIC dilutions of bile acids, E. Faecium
S. aureus = assay: MIC dilutions of bile acids, S. aureus
E. coli = assay: MIC dilutions of bile acids, E. coli
K. pneumoniae = assay: MIC dilutions of bile acids, K. pneumoniae
P. mirabilils = assay: MIC dilutions of bile acids, P. mirabilils

Row | Structure (SMILES) | MIC (B. subtilis; Bacillus subtilis, read-out: MIC) | MIC (B. clausii; Shouchella clausii, read-out: MIC) | MIC (S. pneumoniae; Streptococcus pneumoniae, read-out: MIC) | MIC (E. faecalis; Enterococcus faecalis, read-out: MIC) | MIC (E. Faecium; Enterococcus faecium, read-out: MIC) | MIC (S. aureus; Staphylococcus aureus, read-out: MIC) | MIC (E. coli; Escherichia coli) | MIC (K. pneumoniae; Klebsiella pneumoniae, read-out: MIC) | MIC (P. mirabilils; read-out: MIC) | MIC (B. subtilis) | MIC (B. clausii) | MIC (S. pneumoniae) | MIC (E. faecalis) | MIC (E. Faecium) | MIC (S. aureus) | MIC (E. coli; E. coli) | MIC (K. pneumoniae) | MIC (P. mirabilils)
1 | C[C@H](CCC(=O)NCCS(=O)(=O)O)[C@H]1CC[C@H]2[C@@H]3CC[C@@H]4C[C@H](O)CC[C@]4(C)[C@H]3C[C@H](O)[C@]12C [TDOC, tauro-deoxycholic acid] | 195 µg/mL and 400 µM | 24 µg/mL and ≤ 50 µM | 25000 µg/mL and 51200 µM | 25000 µg/mL and 51200 µM | 3120 µg/mL and 6400 µM | ≥ 25000 µg/mL and ≥ 51200 µM | ≥ 25000 µg/mL and ≥ 51200 µM | ≥ 25000 µg/mL and ≥ 51200 µM | ≥ 25000 µg/mL and ≥ 51200 µM |  |  |  |  |  |  |  |  | 
2 | C[C@H](CCC(=O)O)[C@H]1CC[C@H]2[C@@H]3CC[C@@H]4C[C@H](O)CC[C@]4(C)[C@H]3C[C@H](O)[C@]12C [DOC, deoxycholic acid] |  |  |  |  |  |  |  |  |  | 78 μg/mL and (0.2) mM | 78 μg/mL and (0.2) mM | 20 μg/mL and (0.05) mM | 625 μg/mL and (1.6) mM | 625 μg/mL and (1.6) mM | ≧20 000 μg/mL; also recorded: (≧51.2) mM | ≧20 μg/mL; also recorded: (≧0.05) mM | ≧20 μg/mL; also recorded: (≧0.05) mM | ≧20 μg/mL; also recorded: (≧0.05) mM

— patent publication US20030124104A1, “Probiotic compositions” (priority 2001, published 2003)
